Assay [1] addresses T1, angiotensin II type 1 receptor (Oryctolagus cuniculus, UniProt P34976).
T1 construct: By using a specimen of isolated rabbit blood vessels; from tissue; host or cells: rabbit thoracic aorta ring (New Zealand White, male)
T1 sequence (P34976 1-359): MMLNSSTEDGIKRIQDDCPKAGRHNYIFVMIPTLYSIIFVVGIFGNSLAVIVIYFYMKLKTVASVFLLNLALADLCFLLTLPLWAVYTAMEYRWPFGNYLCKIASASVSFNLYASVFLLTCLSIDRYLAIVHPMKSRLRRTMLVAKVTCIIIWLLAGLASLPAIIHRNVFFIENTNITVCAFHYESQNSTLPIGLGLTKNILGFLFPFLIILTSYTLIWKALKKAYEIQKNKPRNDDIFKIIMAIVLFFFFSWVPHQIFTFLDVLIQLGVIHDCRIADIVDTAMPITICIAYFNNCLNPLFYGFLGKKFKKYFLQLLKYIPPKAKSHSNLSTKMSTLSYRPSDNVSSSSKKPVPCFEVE
In words: Angiotensin II antagonistic activity in isolated rabbit blood vessels. The note with it: angiotensin II (10 nM)-induced contraction of rabbit thoracic aorta ring. The protocol:
By using a specimen of isolated rabbit blood vessels, antagonistic activity of the compounds of the invention against angiotensin II type 1 receptor was estimated from a dose-response curve of angiotensin II-induced blood vessel contraction.
During the measurement, the inside temperature of the magnus bath was maintained at 37° C. and the bath was continuously ventilated with a sufficient amount of mixed gas (95% O2 and 5% CO2). The angiotensin II-induced contraction was converted into a relative value (%) that is based on the angiotensin II (10 nM)-induced contraction in the absence of the compounds of each example. From the concentration-response curve obtained therefrom, 50% inhibition concentration (IC50 value) was calculated by using SAS Preclinical Package Ver5.0 (trade name, manufactured by SAS institute Japan Co., Tokyo, Japan), which is a statistical analysis program.

Another assay deals with T2, human PPARγ2 (Homo sapiens, UniProt P37231).
T2 construct: the amino acids 182 to 505 of human PPARγ2; expressed in transfected cells; host or cells: COS7 cells
T2 sequence (P37231 182-505): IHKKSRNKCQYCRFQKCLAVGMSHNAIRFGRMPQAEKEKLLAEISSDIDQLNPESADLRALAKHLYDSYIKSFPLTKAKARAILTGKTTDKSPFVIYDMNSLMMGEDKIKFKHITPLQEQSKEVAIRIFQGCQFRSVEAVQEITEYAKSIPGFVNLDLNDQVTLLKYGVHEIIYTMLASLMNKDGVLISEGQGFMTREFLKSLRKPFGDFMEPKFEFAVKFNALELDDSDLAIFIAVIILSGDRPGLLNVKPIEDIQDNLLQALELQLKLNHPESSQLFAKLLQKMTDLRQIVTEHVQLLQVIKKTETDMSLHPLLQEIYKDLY
T2 sequence (P04386 1-147 partner limits assumed): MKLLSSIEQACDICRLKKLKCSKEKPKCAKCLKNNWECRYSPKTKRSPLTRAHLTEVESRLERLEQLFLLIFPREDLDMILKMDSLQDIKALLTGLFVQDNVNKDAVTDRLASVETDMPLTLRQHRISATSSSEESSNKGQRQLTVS
Put plainly: PPARγ activation activity, Gal4 chimera luciferase transfection assay using COS7 cells. The class given is cell-based. The note with it: for EC50 / Emax: COS7 cells; for EC50: Gal4-human PPARγ2 LBD chimera, luciferase reporter, 16 hours, read-out: EC50; for Emax: COS-7, 16 h, maximum activity strength relative to the maximum activity of rosiglitazone, read-out: % MAX vs Rosiglitazone. On the procedure:
The agonistic activity of the compounds of the invention on PPARγ was measured based on the transfection assay using COS7 cells (DS Pharma Biomedical Co., Ltd., Osaka, Japan), which are the cell line derived from the kidney of the African green monkey. COS7 cells were cultured under 5% CO2 concentration, and DMEM medium containing 10% fetal bovine serum, glutamic acid, and antibiotics was used as a medium.
As an expression vector, a chimera in which DNA binding domain of Gal4, which is a yeast transcription factor, and ligand binding domain of human PPAR^γ2 are fused, i.e., a fused product between the amino acids 1 to 147 of Gal4 transcription factor and the amino acids 182 to 505 of human PPARγ2, was used. Furthermore, as a reporter vector, a firefly luciferase containing five copies of Gal4 recognition sequence in the promoter region was used. Plasmid transfection to the cells was performed according to a method which uses jetPEI (trade name, manufactured by Funakoshi Co., Ltd., Tokyo, Japan). Furthermore, β-galactosidase expression vector was employed as an internal standard.
After the transfection of the cells, the medium was replaced with a DMEM medium (containing 1% serum) added with the compound, and the cells were further cultured for 16 hours. After that, the luciferase activity and β-galactosidase activity in the cell lysis solution were measured.
For the present test, dimethyl sulfoxide (DMSO) was used for dissolution and dilution of the test compounds, and during the cell treatment, the DMSO concentration in DMEM medium (containing 1% serum) was adjusted to 0.1%. As a positive compound, rosiglitazone (trade name, manufactured by ALEXIS Corporation, Switzerland) was used. […] The 50% effective concentration of the test compound (EC50, 50% effect concentration) was calculated by using SAS Preclinical Package Ver5.0 (trade name, manufactured by SAS institute Japan Co., Tokyo, Japan), which is a statistical analysis program.
For orientation: In a reporter assay the amount or activity of a reporter protein is the signal.

Consider `CCCCc1nc(C)n(-c2ccc(C(F)(F)F)cn2)c(=O)c1Cc1ccc(-c2ccccc2-c2nnn[nH]2)cc1` [Example 11, 5-{[2′-(1H-tetrazol-5-yl)biphenyl-4-yl]methyl}-6-butyl-2-methyl-3-[5-(trifluoromethyl)pyridin-2-yl]pyrimidin-4(3H)-one], for which the half-inhibitory concentration (IC50) in assay [1] was found to be 981 nM. At human PPARγ2, the EC50 worked out at 1300 nM and the Emax worked out at 48.6%. Moreover, the “maximum activity compared with telmisartan” value on human PPARγ2 (maximum PPARγ activity, telmisartan 30 to 50% of rosiglitazone under the same condition) is reported as “the same or greater than that of telmisartan”.
For `CCCCc1nc(C)n(-c2ncc(C(F)(F)F)cc2Cl)c(=O)c1Cc1ccc(-c2ccccc2-c2nnn[nH]2)cc1` [Example 13, 5-{[2′-(1H-tetrazol-5-yl)biphenyl-4-yl]methyl}-6-butyl-3-[3-chloro-5-(trifluoromethyl)pyridin-2-yl]-2-methylpyrimidin-4(3H)-one], inhibition in assay [1] was half-maximal at 26 nM (IC50). Further, on human PPARγ2, the EC50 amounted to 170 nM.
`CCCCc1nc(C)n(-c2ncc(Br)cn2)c(=O)c1Cc1ccc(-c2ccccc2-c2nnn[nH]2)cc1` [Example 16, 5-{[2′-(1H-tetrazol-5-yl)biphenyl-4-yl]methyl}-3-(5-bromopyrimidin-2-yl)-6-butyl-2-methylpyrimidin-4 (3H)-one]: in assay [1], the IC50 is 14 nM. Further, at human PPARγ2, the concentration giving a half-maximal response (EC50) is 2410 nM and the Emax came to 35.5%.
With `CCCCc1nc(C)n(-c2ncc(OCc3ccccc3)cn2)c(=O)c1Cc1ccc(-c2ccccc2-c2nnn[nH]2)cc1` [Example 19, 5-{[2′-(1H-tetrazol-5-yl)biphenyl-4-yl]methyl}-3-[5-(benzyloxy)pyrimidin-2-yl]-6-butyl-2-methylpyrimidin-4 (3H)-one], the midpoint of inhibition in assay [1], the IC50, lay at 396 nM. Moreover, on human PPARγ2, the concentration giving a half-maximal response (EC50) stood at 2550 nM.
In assay [1], `CCCCc1nc(C)n(-c2ncc(OCC)cn2)c(=O)c1Cc1ccc(-c2ccccc2-c2nnn[nH]2)cc1` [Example 21, 5-{[2′-(1H-tetrazol-5-yl)biphenyl-4-yl]methyl}-6-butyl-3-(5-ethoxypyrimidin-2-yl)-2-methylpyrimidin-4 (3H)-one] showed an IC50 of 17 nM. Moreover, the half-maximal effective concentration (EC50) at human PPARγ2 was found to be 1590 nM.
`CCCCc1nc(C)n(-c2ncc(OCCC)cn2)c(=O)c1Cc1ccc(-c2ccccc2-c2nnn[nH]2)cc1` [Example 22, 5-{[2′-(1H-tetrazol-5-yl)biphenyl-4-yl]methyl}-6-butyl-2-methyl-3-(5-propoxypyrimidin-2-yl)pyrimidin-4 (3H)-one] had a concentration for half-maximal inhibition (IC50) in assay [1] of 155 nM. On human PPARγ2, the 50% effective concentration (EC50) is 590 nM and the Emax was 22.8%.
Turning to `CCCCc1nc(C)n(-c2ncc(OC(C)C)cn2)c(=O)c1Cc1ccc(-c2ccccc2-c2nnn[nH]2)cc1` [Example 23, 5-{[2′-(1H-tetrazol-5-yl)biphenyl-4-yl]methyl}-6-butyl-3-(5-isopropoxypyrimidin-2-yl)-2-methylpyrimidin-4 (3H)-one], in assay [1], the IC50 stood at 22 nM. For the same compound, the EC50 on human PPARγ2 was determined as 890 nM.
For `CCCCOc1cnc(-n2c(C)nc(CCCC)c(Cc3ccc(-c4ccccc4-c4nnn[nH]4)cc3)c2=O)nc1` [Example 24, 5-{[2′-(1H-tetrazol-5-yl)biphenyl-4-yl]methyl}-3-(5-butoxypyrimidin-2-yl)-6-butyl-2-methylpyrimidin-4 (3H)-one], in that order: 141 nM and 860 nM.
In assay [1], `CCCCc1nc(C)n(-c2ncc(OCCSC)cn2)c(=O)c1Cc1ccc(-c2ccccc2-c2nnn[nH]2)cc1` [Example 26, 5-{[2′-(1H-tetrazol-5-yl)biphenyl-4-yl]methyl}-6-butyl-2-methyl-3-{5-[2-(methylthio)ethoxy]pyrimidin-2-yl}pyrimidin-4 (3H)-one] registered a concentration for half-maximal inhibition (IC50) of 24 nM. Also, the concentration giving a half-maximal response (EC50) at human PPARγ2 was 3890 nM.
The compound `CCCCc1nc(C)n(-c2ncc(OC3CCCCC3)cn2)c(=O)c1Cc1ccc(-c2ccccc2-c2nnn[nH]2)cc1` [Example 28, 5-{[2′-(1H-tetrazol-5-yl)biphenyl-4-yl]methyl}-6-butyl-3-[5-(cyclohexyloxy)pyrimidin-2-yl]-2-methylpyrimidin-4 (3H)-one] showed an IC50 in assay [1] of 49 nM. Further, at human PPARγ2, the 50% effective concentration (EC50) amounted to 1230 nM and the Emax worked out at 28.9%.
With `CCCCc1nc(C)n(-c2ncc(OCCc3ccc(CC)cn3)cn2)c(=O)c1Cc1ccc(-c2ccccc2-c2nnn[nH]2)cc1` [Example 36, 5-{[2′-(1H-tetrazol-5-yl)biphenyl-4-yl]methyl}-6-butyl-3-{5-[2-(5-ethylpyridin-2-yl)ethoxy]pyrimidin-2-yl}-2-methylpyrimidin-4 (3H)-one], in assay [1], it took 627 nM to reach half-maximal inhibition (IC50). For the same compound, the EC50 on human PPARγ2 is 3770 nM.
In assay [1], `CCCCc1nc(C)n(-c2ncc(OC(C(=O)O)c3ccccc3)cn2)c(=O)c1Cc1ccc(-c2ccccc2-c2nnn[nH]2)cc1` (stereo not shown) [Example 42, 2-{2-{5-{[2′-(1H-tetrazol-5-yl)biphenyl-4-yl]methyl}-4-butyl-2-methyl-6-oxopyrimidin-1(6H)-yl}pyrimidin-5-yloxy}-2-phenylacetic acid] yielded an IC50 of 2.7 nM. In addition, the concentration for a half-maximal effect (EC50) at human PPARγ2 came to 4220 nM.
In assay [1], `CCCCc1nc(C)n(-c2ncc(OCCCC(N)=O)cn2)c(=O)c1Cc1ccc(-c2ccccc2-c2nnn[nH]2)cc1` [Example 47, 4-{2-{5-{[2′-(1H-tetrazol-5-yl)biphenyl-4-yl]methyl}-4-butyl-2-methyl-6-oxopyrimidin-1(6H)-yl}pyrimidin-5-yloxy}butanamide] showed a concentration for half-maximal inhibition (IC50) of 2.6 nM. The EC50 at human PPARγ2 was determined as 80 nM.
The matching figures for `CCCCc1nc(C)n(-c2ncc(OCCCC(=O)NCC)cn2)c(=O)c1Cc1ccc(-c2ccccc2-c2nnn[nH]2)cc1` [Example 49, 4-{2-{5-{[2′-(1H-tetrazol-5-yl)biphenyl-4-yl]methyl}-4-butyl-2-methyl-6-oxopyrimidin-1(6H)-yl}pyrimidin-5-yloxy}-N-ethylbutanamide]: 12 nM and 70 nM.
The matching figures for `CCCCc1nc(C)n(-c2ncc(OCCCC(=O)N(CC)CC)cn2)c(=O)c1Cc1ccc(-c2ccccc2-c2nnn[nH]2)cc1` [Example 52, 4-{2-{5-{[2′-(1H-tetrazol-5-yl)biphenyl-4-yl]methyl}-4-butyl-2-methyl-6-oxopyrimidin-1(6H)-yl}pyrimidin-5-yloxy}-N,N-diethylbutanamide]: 8.3 nM and 140 nM.
Consider `CCCCc1nc(C)n(-c2ncc(OCCCNS(=O)(=O)C(F)(F)F)cn2)c(=O)c1Cc1ccc(-c2ccccc2-c2nnn[nH]2)cc1` [Example 58, N-{3-{2-{5-{[2′-(1H-tetrazol-5-yl)biphenyl-4-yl]methyl}-4-butyl-2-methyl-6-oxopyrimidin-1 (6H)-yl}pyrimidin-5-yloxy}propyl}-1,1,1-trifluoromethane sulfonamide], for which the midpoint of inhibition in assay [1], the IC50, lay at 352 nM. For the same compound, the 50% effective concentration (EC50) on human PPARγ2 was 1910 nM.
The matching figures for `CCCCc1nc(C)n(-c2cc(OC)nc(OC)n2)c(=O)c1Cc1ccc(-c2ccccc2-c2nnn[nH]2)cc1` [Example 59]: 13 nM and 1240 nM.
`CCCCc1nc(C)n(-c2nccs2)c(=O)c1Cc1ccc(-c2ccccc2-c2nnn[nH]2)cc1` [Example 62, 5-{[2′-(1H-tetrazol-5-yl)biphenyl-4-yl]methyl}-6-butyl-2-methyl-3-(thiazol-2-yl)pyrimidin-4 (3H)-one] returned an IC50 in assay [1] of 435 nM. In addition, the EC50 on human PPARγ2 stood at 3390 nM.
For `CCCCc1nc(C)n(-c2ccon2)c(=O)c1Cc1ccc(-c2ccccc2-c2nnn[nH]2)cc1` [Example 63, 5-{[2′-(1H-tetrazol-5-yl)biphenyl-4-yl]methyl}-6-butyl-3-(isoxazol-3-yl)-2-methylpyrimidin-4 (3H)-one], in that order: 193 nM and 3670 nM.

The term IC50 denotes the point on the concentration scale where inhibition reaches its midpoint. A high value points to a need for much substance. The term EC50 denotes the midpoint of the concentration-response curve.
